# According to PMC12373846, “Hemoglobin as a pseudoperoxidase and drug target for oxidative stress-related diseases” (Signal Transduction and Targeted Therapy, 2025):
# Like-named read-outs stand apart in the source and are kept apart here.
# Key:
# SOD1^G93A mice = experiment: Immunohistochemistry of ventral spinal cord, SOD1^G93A mice; format: in vivo, mouse; settings: SOD1+KDS
# Protocol: SOD1^G93A mice (B6SJL-Tg(SOD1*G93A)1Gur/J) were purchased from Jackson Laboratory (strain number 002726) and used in the ALS mouse model. The mice were divided into four groups: Control, SOD1, and KDS12025 (1 and 10 mg/kg/day). Starting at 10 weeks of age, KDS12025 was administered via ad libitum drinking water at doses of 1 mg/kg/day and 10 mg/kg/day. The control and SOD1 groups received standard drinking water. Motor function was evaluated weekly via the rotarod performance test, and the ratio of running time was normalized to that of littermate controls to assess motor coordination and endurance over time. Survival of the mice was monitored for up to 24 weeks, and median survival times were calculated for each group.
# The mice were deeply anesthetized with 2% isoflurane and positioned on the operating table. […] A series of fluorescence images were obtained with an LSM900 (Zeiss, Germany) confocal microscope or Lattice SIM Elyra 7 (Zeiss, Germany). […] This analysis quantified the intersections of GFAP-labeled processes within each circle, calculating the ramification index and ending radius, enabling the evaluation of astrocytic hypertrophy and morphological changes, as previously described.[78] In the focal GiD mouse model, NeuN-positive CA1 pyramidal neurons were quantified within a 50 × 50 μm^2 region via ImageJ to determine the number of CA1 pyramidal neurons.
# aged C57BL/6J mice = experiment: Immunohistochemistry, aging mice; format: in vivo, mouse; settings: 30 month, 1 mg/kg/day
# Protocol: Aged 1-year-old C57BL/6J animals were purchased from Janvier Labs (France) and quarantined in the IBS Animal Facility for 2 weeks before the experiment. The animals were weighed, and their water consumption (in grams) was monitored for 3 days before the appropriate drug concentration was calculated for each dose group. The animals were randomly assigned to the drug/control and dose groups. […] The drug concentration (in water) was modified on the basis of changes in animal weight and corresponding water consumption every 3 months. Basal body temperature and body weight were monitored every 2 weeks. The care and handling of the animals were performed in accordance with the guidelines of the Institutional Animal Care and Use Committee of IBS (Daejeon, South Korea).
# The mice were deeply anesthetized with 2% isoflurane and positioned on the operating table. After the abdomen was opened and the heart was exposed, the […] were perfused with saline, followed by 4% paraformaldehyde (PFA) in 0.1 M PBS. The mice were decapitated, and the brains were excised from the skull. Excised brains were postfixed in 4% PFA overnight at 4 °C and dehydrated in 30% sucrose for 48 h. Coronal hippocampal sections were cut at 30 µm thickness with a cryostat and stored in storage solution. For the ALS experiments, lumbar spinal cords (L2–L5) were also carefully dissected and immediately immersed in 4% PFA for postfixation. The sections were fully washed in 0.1 M PBS and incubated for 1 h in blocking solution (0.3% Triton X-100, 2% donkey and goat serum in 0.1 M PBS). Next, a mixture of primary antibodies in the blocking solution was used for immunostaining on a shaker overnight at 4 °C. The sections were washed in PBS three times. After washing, the sections were incubated with the corresponding fluorescent secondary antibodies for 1 h at RT. DAPI staining was performed by adding a DAPI solution (1:2000) during the second washing step. After the washing step was complete, the sections were mounted on cover slides with mounting medium. A series of fluorescence images were obtained with an LSM900 (Zeiss, Germany) confocal microscope or Lattice SIM Elyra 7 (Zeiss, Germany). The 15–22 μm Z stack images in 1–2 μm steps were processed for image analysis, which was performed via the ImageJ (NIH, US) and ZEN digital imaging for light microscopy blue system (Zeiss, Germany) programs. The primary antibodies used were as follows: chicken anti-GFAP (1:500, Millipore, ab5541), rabbit anti-amyloid beta (1:500, Abcam, ab2539), mouse anti-NeuN (1:200, Millipore, ab377), rabbit anti-Hbβ (1:200, Abcam, ab214049), mouse anti-Hbβ (1:200, Santacruz, sc-21757), mouse anti-MAOB (1:200, Santacruz, sc-515354), mouse anti-8-OhdG (1:500, Santacruz, sc-393871), rabbit anti-TH (1:500, Pelfreez, p40101), and mouse anti-TH (1:200, Sigma, T2928). The following secondary antibodies from Jackson were diluted (1:500) in blocking solution: donkey-anti-chicken 405, donkey-anti-chicken 647, donkey-anti-rabbit 488, donkey-anti-rabbit 594, donkey-anti-rabbit 647, donkey-anti-guinea pig 488, donkey-anti-guinea pig 647, donkey-anti-mouse 594, and donkey-anti-mouse 647. Serial confocal sections immunolabeled with GFAP were compiled into a maximal projection to assess the GFAP signal within the hippocampus (Z-stacked images, 15–22 μm Z stack images in 1–2 μm steps of brain sections). Sholl analysis, performed via the ImageJ plugin, automatically generated concentric circles with 10-μm spacing from the nucleus (soma) to the farthest astrocytic process. This analysis quantified the intersections of GFAP-labeled processes within each circle, calculating the ramification index and ending radius, enabling the evaluation of astrocytic hypertrophy and morphological changes, as previously described.[78] In the focal GiD mouse model, NeuN-positive CA1 pyramidal neurons were quantified within a 50 × 50 μm^2 region via ImageJ to determine the number of CA1 pyramidal neurons.
# A53T mice = experiment: Rotarod test, A53T PD mouse model; format: in vivo
# Protocol: Stereotaxic injections were performed to deliver the AAV-CMV-A53T virus or PBS (control) into the right SNpc (AP, −3.2 mm; ML, −1.3 mm; DV, −4.0 mm from the bregma) of the mice. The injections were administered at a rate of 0.2 μl/min, with a total volume of 1 μl. The procedure was conducted under general anesthesia induced by 1% isoflurane.
# The mice were habituated to the rotarod at speeds of 5, 10, and 15 rpm. Motor coordination and endurance were tested at 20 rpm for a maximum of 3 min. The latency to fall was recorded during the test to evaluate motor deficits associated with PD and the therapeutic effects of KDS12025.
# [1] = PK-BBB brain-plasma permeability; format: in vivo, mouse; settings: 5 mg/kg IV
# Protocol: For the brain-plasma permeability assessment, brain tissues from male ICR mice (n = 3 per time point) were collected following euthanasia by CO2 inhalation. Brains were excised, rinsed with saline, blotted dry, and transferred into pre-labeled Eppendorf tubes (one brain per tube). Samples were snap-frozen on dry ice and stored at -80 °C until analysis. Brain samples were processed using the same LC-MS/MS method. The brain-to-plasma concentration ratio was calculated as the concentration of drug in brain tissue divided by the corresponding plasma concentration.
smiles,measurement,setting,value
"CNc1ccc(NCCc2ccccc2OC)cc1.Cl [KDS12025, N^1-(2-methoxyphenethyl)-N^4-methylbenzene-1,4-diamine hydrochloride salt]","Hbβ in GFAP-positive astrocytes, ventral spinal cord",SOD1^G93A mice; Fig. S15b,"Control (2194±76.5, n=25), SOD1 (1209±54.8, n=31), SOD1+KDS (2557±108.6, n=37) One-way ANOVA with Tukey's multiple comparisons test, F(2,90) = 65.01, p < 0.001 Control vs. SOD1, p < 0.001; Control vs. SOD1+KDS, p = 0.02; SOD1 vs. SOD1+KDS, p < 0.001"
same,"Hbβ in NeuN-positive neurons, ventral spinal cord",SOD1^G93A mice; Fig. S15d,"Control (1961±96.1, n=22), SOD1 (1183±89.9, n=19), SOD1+KDS (2326±85.3, n=17) One-way ANOVA with Tukey's multiple comparisons test, F(2,55) = 38.14, p < 0.001 Control vs. SOD1, p < 0.001; Control vs. SOD1+KDS, p = 0.02; SOD1 vs. SOD1+KDS, p < 0.001"
same,"Sholl analysis, sum of intersections (stats entry 7h)",aged C57BL/6J mice,"18 month (84.3±5.19, n=8), 30 month (44.4±5.44, n=9), 30 month+KDS (63.6±5.78, n=14) One-way ANOVA with Tukey's multiple comparisons test, F(2,28) = 9.65, p < 0.001 18 month vs. 30 month, p < 0.001; 18 month vs. 30 month+KDS, p = 0.05; 30 month vs. 30 month+KDS, p = 0.06"
same,NeuN-positive neurons in CA1 (NeuN intensity × neuron number),aged C57BL/6J mice; Fig. 7f,"18 month (1694642±125526, n=6), 30 month (1149296±45876, n=4), 30 month+KDS (1820376±163596, n=6) One-way ANOVA with Tukey's multiple comparisons test, F(2,13) = 5.78, p = 0.02 18 month vs. 30 month, p = 0.05; 18 month vs. 30 month+KDS, p = 0.77; 30 month vs. 30 month+KDS, p = 0.02"
same,GFAP-positive area,aged C57BL/6J mice; Fig. 7g,"18 month (272.5±20.8, n=44), 30 month (167.6±12, n=60), 30 month+KDS (212.0±12.4, n=76) One-way ANOVA with Tukey's multiple comparisons test, F(2,177) = 11.24, p < 0.001 18 month vs. 30 month, p < 0.001; 18 month vs. 30 month+KDS, p = 0.01; 30 month vs. 30 month+KDS, p = 0.06"
same,astrocytic Hbβ expression in the hippocampus,aged C57BL/6J mice; Fig. 7l,"18 month (56.4±1.04, n=48), 30 month (49.5±1.7, n=40), 30 month+KDS (62.8±1.32, n=32) One-way ANOVA with Tukey's multiple comparisons test, F(2,117) = 21.5, p < 0.001 18 month vs. 30 month, p < 0.001; 18 month vs. 30 month+KDS, p = 0.004; 30 month vs. 30 month+KDS, p < 0.001"
same,MAOB intensity in GFAP-positive areas,aged C57BL/6J mice; Fig. S19b,"18 month (40.7±0.7, n=95), 30 month (71.5±1.04, n=66), 30 month+KDS (51.1±0.8, n=83) One-way ANOVA with Tukey's multiple comparisons test, F(2,241) = 354.7, p < 0.001 18 month vs. 30 month, p < 0.001; 18 month vs. 30 month+KDS, p < 0.001; 30 month vs. 30 month+KDS, p < 0.001"
same,GABA intensity in GFAP-positive areas,aged C57BL/6J mice; Fig. S19c,"18 month (50.7±0.7, n=95), 30 month (67.03±1.7, n=66), 30 month+KDS (69.2±1.3, n=83) One-way ANOVA with Tukey's multiple comparisons test, F(2,198) = 84.9, p < 0.001 18 month vs. 30 month, p < 0.001; 18 month vs. 30 month+KDS, p < 0.001; 30 month vs. 30 month+KDS, p = 0.47"
same,TH-positive neurons in the SNpc,aged C57BL/6J mice; Fig. S19d,"Unaired t-test, two tailed 30 month (23.75±5.12, n=4), 30 month+KDS (40.2±2.67, n=5), p = 0.02 t = 3.03, df = 7"
same,rotarod latency to fall,"A53T mice; A53T+KDS12025 1 mg/kg/day ad libitum, Fig. 4h","Control (225.3±30.6, n=6), A53T (93.8±19.6, n=7), A53T+KDS12025 (223.8±23.5, n=8) One-way ANOVA with Tukey's multiple comparisons test, F(2,18) = 9.52, p = 0.002 Control vs. A53T, p = 0.005; Control vs. A53T+KDS12025, p > 0.99; A53T vs. A53T+KDS12025, p = 0.003"
same,rotarod latency to fall,"A53T mice; A53T+shHbβ::CaMKII+KDS12025, Fig. 6q",139.0±51.1
same,rotarod latency to fall,"A53T mice; A53T+shHbβ::GFAP+KDS12025, Fig. 6q",117.0±63.6
same,Brain concentration,[1]; 2 h,BLQ
same,Brain concentration,[1]; 4 h,BLQ
same,Brain concentration,[1]; 8 h,BLQ
same,Plasma concentration,[1]; 8 h,BLQ
same,concentration at 0.083 h,"[1]; male, ICR, mouse, brain, 0.083 h, read-out: Brain concentration",1680 ± 34.2 ng/g
same,Kp at 0.083 h,"[1]; male, ICR, mouse, brain, 0.083 h, read-out: Brain to plasma ratio (B/P)",0.9 ± 0.17
same,concentration at 0.25 h,"[1]; male, ICR, mouse, brain, 0.25 h, read-out: Brain concentration",589 ± 44.1 ng/g
same,Kp at 0.25 h,"[1]; male, ICR, mouse, brain, 0.25 h, read-out: Brain to plasma ratio (B/P)",0.76 ± 0.04
same,concentration at 0.5 h,"[1]; male, ICR, mouse, brain, 0.5 h, read-out: Brain concentration",234 ± 31.7 ng/g
same,Kp at 0.5 h,"[1]; male, ICR, mouse, brain, 0.5 h, read-out: Brain to plasma ratio (B/P)",0.84 ± 0.19
same,concentration at 1 h,"[1]; male, ICR, mouse, brain, 1 h, read-out: Brain concentration",65.6 ± 12.3 ng/g
same,Kp at 1 h,"[1]; male, ICR, mouse, brain, 1 h, read-out: Brain to plasma ratio (B/P)",0.79 ± 0.25
same,half-life,"[1]; male, ICR, mouse, brain, mice, read-out: brain t1/2 (PK-BBB) (converted)",14.4 min
same,concentration at 0.083 h,"[1]; male, ICR, mouse, plasma, 0.083 h, read-out: Plasma concentration",1910 ± 323 ng/mL
same,concentration at 0.25 h,"[1]; male, ICR, mouse, plasma, 0.25 h, read-out: Plasma concentration",782 ± 104 ng/mL
same,concentration at 0.5 h,"[1]; male, ICR, mouse, plasma, 0.5 h, read-out: Plasma concentration",284 ± 45.5 ng/mL
same,concentration at 1 h,"[1]; male, ICR, mouse, plasma, 1 h, read-out: Plasma concentration",84.7 ± 10.3 ng/mL
same,concentration at 2 h,"[1]; male, ICR, mouse, plasma, 2 h",15.5 ± 7.09 ng/mL
same,concentration at 4 h,"[1]; male, ICR, mouse, plasma, 4 h",2.99 ± 0.52 ng/mL
same,AUC,"[1]; male, ICR, mouse, plasma, mice, read-out: plasma AUCall (PK-BBB)",721 ng·h/mL
same,clearance,"[1]; male, ICR, mouse, plasma, mice, read-out: plasma Cl (PK-BBB) (converted)",115 mL/min/kg
same,half-life,"[1]; male, ICR, mouse, plasma, mice, read-out: plasma t1/2 (PK-BBB) (converted)",39 min
same,brain AUCall (PK-BBB),[1]; mice,437.01 ng·h/mL
same,brain Cmax (PK-BBB),[1]; mice,1680.64 ng/mL
